According to US6824967B2, “Method of preparing dye solution, and methods of producing silver halide emulsion and silver halide photographic material” (Fuji Photo Film Co., Ltd., priority 2002, dated 2004):

Experiments:
[1] = pKa printed beside the base in Table 1; cited from earlier work
[2] = Degree of dissolution of dye, visual observation after ultrasonic irradiation; format: physicochemical; design: key: good: when it was in a completely dissolved state; poor: when it left some residue; failed: when it was in a hardly dissolved state; settings: 1.0 g dye in 200 ml 1:1 methanol/water, ultrasonic 30 min at 25° C.
[3] = pH value of dye solution measured with a pH-meter; format: physicochemical; settings: 1.0 g dye in 200 ml 1:1 methanol/water
[4] = 1,8-diazabicyclo-7-undecene, 1.0 equivalents to dye
[5] = N,N-diisopropylethylamine, 1.0 equivalents to dye
[6] = pyridine, 1.0 equivalents to dye
[7] = triethanolamine, 1.0 equivalents to dye
[8] = triethanolamine, 1.2 equivalents to dye
[9] = triethylamine, 0.8 equivalents to dye
[10] = triethylamine, 1.0 equivalents to dye
[11] = 2,4,6-trimethylpyridine, 1.0 equivalents to dye
[12] = N-methylmorpholine, 1.0 equivalents to dye

## Cc1cc(C)nc(C)c1 [2,4,6-Trimethylpyridine]
[1]
  Base (pKa): 2,4,6-trimethylpyridine (7.43)

## O=C(O)C[n+]1c(C=C2Sc3ccc(Cl)cc3N2CCCS(=O)(=O)[O-])sc2ccc(Cl)cc21 [Dye S-14]
[2]; [4]
  Degree of dissolution: good
[2]; [5]
  Degree of dissolution: good
[2]; base absent
  Degree of dissolution: failed
[2]; [6]
  Degree of dissolution: failed
[2]; [7]
  Degree of dissolution: good
[2]; [8]
  Degree of dissolution: good
[2]; [9]
  Degree of dissolution: poor
[2]; [10]
  Degree of dissolution: good
[3]; [4]
  pH Value of dye solution: 10.8
[3]; [5]
  pH Value of dye solution: 10.1
[3]; base absent
  pH Value of dye solution: 6.1
[3]; [6]
  pH Value of dye solution: 5.7
[3]; [7]
  pH Value of dye solution: 7.3
[3]; [8]
  pH Value of dye solution: 7.4
[3]; [9]
  pH Value of dye solution: 6.9
[3]; [10]
  pH Value of dye solution: 9.4

## O=C(O)C[n+]1c(C=C2Sc3ccc(Cl)cc3N2CCCS(=O)(=O)[O-])sc2cc(Cl)sc21 [Dye S-37]
[2]; [4]
  Degree of dissolution: good
[2]; [11]
  Degree of dissolution: good
[2]; [12]
  Degree of dissolution: good
[2]; base absent
  Degree of dissolution: failed
[2]; [7]
  Degree of dissolution: good
[2]; [8]
  Degree of dissolution: good
[2]; [9]
  Degree of dissolution: poor
[2]; [10]
  Degree of dissolution: good
[3]; [4]
  pH Value of dye solution: 11.0
[3]; [11]
  pH Value of dye solution: 7.2
[3]; [12]
  pH Value of dye solution: 7.1
[3]; base absent
  pH Value of dye solution: 6.2
[3]; [7]
  pH Value of dye solution: 7.4
[3]; [8]
  pH Value of dye solution: 7.5
[3]; [9]
  pH Value of dye solution: 7.1
[3]; [10]
  pH Value of dye solution: 9.6

## O=C(O)C[n+]1c(C=C2Sc3ccc(Br)cc3N2CCCS(=O)(=O)[O-])sc2ccsc21 [Dye S-39]
[2]; base absent
  Degree of dissolution: failed
[2]; [7]
  Degree of dissolution: good
[2]; [8]
  Degree of dissolution: good
[2]; [9]
  Degree of dissolution: poor
[2]; [10]
  Degree of dissolution: good
[3]; base absent
  pH Value of dye solution: 6.3
[3]; [7]
  pH Value of dye solution: 7.5
[3]; [8]
  pH Value of dye solution: 7.6
[3]; [9]
  pH Value of dye solution: 7.4
[3]; [10]
  pH Value of dye solution: 9.7

## CN1CCOCC1 [N-methylmorpholine]
[1]
  Base (pKa): N-methylmorpholine (7.38)
